Source: EP2998294A1, “Naphthyl sulfonamide phenyl derivatives as KEAP-1 modulators for the treatment of diabetes, obesity, dyslipidemia and related disorders” (SANOFI, priority 2014, dated 2016)

target: T1, human Keap1 kelch domain (amino acids Ala321-Thr609) (Homo sapiens, UniProt Q14145); test: Keap1-Nrf2 peptide binding assay (fluorescence polarisation); settings: not given
T1 construct: human Keap1 kelch domain (amino acids Ala321-Thr609)
Description: A fluorescence polarisation assay was used to measure binding of the human Keap1 kelch domain (amino acids Ala321-Thr609) to a fluorescently labeled peptide containing a Keap1 binding site of human Nrf2 (Alexa633-AFFAQLQLDEETGEFL; JPT Technologies, Berlin, Germany). Two microliters of test compound in reaction buffer (phosphate-buffered saline, 2 mM DL-dithiothreitol, 0.015 % (v/v) Brij-35) containing 6 % (v/v) DMSO were mixed with two microliters of the Keap1 kelch domain in reaction buffer in a black 384-well small volume microtiter plate and incubated at ambient temperature for 15 minutes. Thereafter, two microliters were added of the fluorescently labeled Nrf2 peptide in reaction buffer, and the mixture was incubated for a further 30 minutes at ambient temperature. Final concentrations of the Keap1 kelch domain and the fluorescently labeled Nrf2 peptide were 20 nM and 50 nM, respectively.
Fluorescence polarization (FP) was measured at excitation and emission wavelengths of 635 nm and 660 nm, respectively. Positive controls for binding (two microliters of reaction buffer containing 6 % (v/v) DMSO instead of test compound in the same buffer) and negative controls (as positive controls, but without Keap1 kelch domain) were included on each microtiter plate. Data were expressed as percent-inhibition values: percentinhibition = 100⋅(1-(|FPcompound-FPnegative controle|)/(|FPpositive controle-FPnegative controle|)) [formula]
IC50 values were determined by testing different compound concentrations and fitting the resulting percent-inhibition values to the following equation using XLFit4: percentinhibition = A + (B-A)/(1 + (((IC50)/([Compound])))^D) [formula]
Parameter A was set to zero, pre-fit values for parameters B and D were set to 100 and 1, respectively.

T1 sequence (Q14145 321-609): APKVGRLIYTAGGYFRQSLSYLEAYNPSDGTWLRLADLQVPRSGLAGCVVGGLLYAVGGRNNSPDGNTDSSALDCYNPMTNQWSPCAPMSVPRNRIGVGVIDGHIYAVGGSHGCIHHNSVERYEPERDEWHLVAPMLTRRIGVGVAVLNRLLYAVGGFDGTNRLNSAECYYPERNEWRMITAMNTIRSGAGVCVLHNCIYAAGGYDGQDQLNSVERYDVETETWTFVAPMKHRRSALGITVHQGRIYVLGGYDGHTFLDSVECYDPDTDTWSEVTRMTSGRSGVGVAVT

SMILES	IC50 [nM]
O=C1Cc2cc(S(=O)(=O)Nc3ccc(-c4cccc(C(=O)O)c4)c4ccccc34)ccc2N1 [Example 51, [4-[(2-oxoindolin-5-yl)sulfonylamino]-1-naphthyl]benzoic acid]	7800

same assay, conditions: binding of Keap1 kelch domain (20 nM) to fluorescently labeled Nrf2 peptide (50 nM)

SMILES	IC50 [nM]
O=C(O)c1cccc(-c2ccc(NS(=O)(=O)c3ccc(Cl)c(C(F)(F)F)c3)c3ccccc23)c1 [Example 37, [4-[[4-chloro-3-(trifluoromethyl)phenyl]sulfonylamino]-1-naphthyl]benzoic acid]	4000
O=C(O)c1cccc(-c2ccc(NS(=O)(=O)c3ccc(OC(F)(F)F)c(Cl)c3)c3ccccc23)c1 [Example 38, 3-[4-[[3-chloro-4-(trifluoromethoxy)phenyl]sulfonylamino]-1-naphthyl]benzoic acid]	6800
O=C(O)c1cccc(-c2ccc(NS(=O)(=O)c3cc(Cl)c(F)cc3F)c3ccccc23)c1 [Example 40, 3-[4-[(5-chloro-2,4-difluorophenyl)sulfonylamino]-1-naphthyl]benzoic acid]	4400
Cc1ccc(Cl)cc1S(=O)(=O)Nc1ccc(-c2cccc(C(=O)O)c2)c2ccccc12 [Example 41, 3-[4-[(5-chloro-2-methylphenyl)sulfonylamino]-1-naphthyl]benzoic acid]	1400
O=C(O)c1cccc(-c2ccc(NS(=O)(=O)c3cc(F)cc(F)c3F)c3ccccc23)c1 [Example 42, 3-[4-[(2,3,5-trifluorophenyl)sulfonylamino]-1-naphthyl]benzoic acid]	6400
CN1CCOc2cc(S(=O)(=O)Nc3ccc(-c4cccc(C(=O)O)c4)c4ccccc34)ccc21 [Example 43, 3-[4-[(4-methyl-2,3-dihydro-1,4-benzoxazin-7-yl)sulfonylamino]-1-naphthyl]benzoic acid]	1600
O=C(O)c1cccc(-c2ccc(NS(=O)(=O)c3ccc4ncsc4c3)c3ccccc23)c1 [Example 44, 3-[4-(1,3-benzothiazol-6-ylsulfonylamino)-1-naphthyl]benzoic acid]	3800
Cc1c(Cl)cc(F)cc1S(=O)(=O)Nc1ccc(-c2cccc(C(=O)O)c2)c2ccccc12 [Example 46, 3-[4-[(3-chloro-5-fluoro-2-methylphenyl)sulfonylamino]-1-naphthyl]benzoic acid]	2100
Cc1cc(NC(=O)c2ccccc2)ccc1S(=O)(=O)Nc1ccc(-c2cccc(C(=O)O)c2)c2ccccc12 [Example 47, 3-[4-[(4-benzamido-2-methylphenyl)sulfonylamino]-1-naphthyl]benzoic acid]	5000
O=C(O)c1cccc(-c2ccc(NS(=O)(=O)c3cc(Cl)cc(Cl)c3)c3ccccc23)c1 [Example 48, 3-[4-[(3,5-dichlorophenyl)sulfonylamino]-1-naphthyl]benzoic acid]	2300
O=C(O)c1cccc(-c2ccc(NS(=O)(=O)c3cc(Cl)sc3Cl)c3ccccc23)c1 [Example 49, 3-[4-[(2,5-dichloro-3-thienyl)sulfonylamino]-1-naphthyl]benzoic acid]	1700
O=C(O)c1cccc(-c2ccc(NS(=O)(=O)c3c(Cl)cc(C(F)(F)F)cc3Cl)c3ccccc23)c1 [Example 52, 3-[4-[[2,6-dichloro-4-(trifluoromethyl)phenyl]sulfonylamino]-1-naphthyl]benzoic acid]	1400
Cc1ccc(C#N)c(S(=O)(=O)Nc2ccc(-c3cccc(C(=O)O)c3)c3ccccc23)c1 [Example 53, 3-[4-[(2-cyano-5-methylphenyl)sulfonylamino]-1-naphthyl]benzoic acid]	6700
O=C(O)c1cccc(-c2ccc(NS(=O)(=O)c3cc(Cl)ccc3Cl)c3ccccc23)c1 [Example 54, 3-[4-[(2,5-dichlorophenyl)sulfonylamino]-1-naphthyl]benzoic acid]	3700
Cc1cc(Cl)c(C)c(S(=O)(=O)Nc2ccc(-c3cccc(C(=O)O)c3)c3ccccc23)c1Cl [Example 57, 3-[4-[(2,5-dichloro-3,6-dimethylphenyl)sulfonylamino]-1-naphthyl]benzoic acid]	600

same assay, conditions: binding of Keap1 kelch domain (20 nM) to fluorescently labeled Nrf2 peptide (50 nM); read-out: IC50

SMILES	IC50 [nM]
Cc1nc(-c2ccccc2)sc1S(=O)(=O)Nc1ccc(-c2cccc(C(=O)O)c2)c2ccccc12 [Example 39, 3-[4-[(4-methyl-2-phenyl-thiazol-5-yl)sulfonylamino]-1-naphthyl]benzoic acid]	2800
Cc1cc(NC(=O)N2CCOCC2)ccc1S(=O)(=O)Nc1ccc(-c2cccc(C(=O)O)c2)c2ccccc12 [Example 45, 3-[4-[[2-methyl-4-(morpholine-4-carbonylamino)phenyl]sulfonylamino]-1-naphthyl]benzoic acid]	2500
Cc1nn(-c2ccccc2)c(C)c1S(=O)(=O)Nc1ccc(-c2cccc(C(=O)O)c2)c2ccccc12 [Example 50, 3-[4-[(3,5-dimethyl-1-phenyl-pyrazol-4-yl)sulfonylamino]-1-naphthyl]benzoic acid]	1600
O=C(O)c1cccc(-c2ccc(NS(=O)(=O)c3ccc4c(c3)OCCO4)c3ccccc23)c1 [Example 55, 3-[4-(2,3-dihydro-1,4-benzodioxin-6-ylsulfonylamino)-1-naphthyl]benzoic acid]	4300
Cc1nn(C)c(Cl)c1S(=O)(=O)Nc1ccc(-c2cc(C(=O)O)ccc2F)c2ccccc12 [Example 56, 3-[4-[(5-chloro-1,3-dimethyl-pyrazol-4-yl)sulfonylamino]-1-naphthyl]-4-fluorobenzoic acid]	300
Cc1cc(S(=O)(=O)Nc2ccc(-c3cccc(C(=O)O)c3)c3ccccc23)c(C)o1 [Example 58, 3-[4-[(2,5-dimethyl-3-furyl)sulfonylamino]-1-naphthyl]benzoic acid]	4600
CCCCCCCCc1cc(-c2cccc(C(=O)O)c2)c2ccccc2c1NS(=O)(=O)c1c(C)c(C)cc(C)c1C [Example 59, 3-[3-octyl-4-[(2,3,5,6-tetramethylphenyl)sulfonylamino]-1-naphthyl]benzoic acid]	46000
O=C(O)c1cccc(-c2ccc(NS(=O)(=O)c3c(Cl)nc4sccn34)c3ccccc23)c1 [Example 60, 3-[4-[(6-chloroimidazo[2,1-b]thiazol-5-yl)sulfonylamino]-1-naphthyl]benzoic acid]	900
Cc1ccc2c(NS(=O)(=O)c3c(C)c(C)cc(C)c3C)ccc(-c3cc(C(=O)O)ccc3F)c2n1 [Example 61, 4-fluoro-3-[2-methyl-5-[(2,3,5,6-tetramethylphenyl)sulfonylamino]-8-quinolyl]benzoic acid; 2,2,2-trifluoroacetic acid]	500
CCCCn1cc(S(=O)(=O)Nc2ccc(-c3cccc(C(=O)O)c3)c3ccccc23)c(C)n1 [Example 62, 3-[4-[(1-butyl-3-methyl-pyrazol-4-yl)sulfonylamino]-1-naphthyl]benzoic acid]	700
CCCn1ncc(S(=O)(=O)Nc2ccc(-c3cccc(C(=O)O)c3)c3ccccc23)c1C [Example 63, 3-[4-[(5-methyl-1-propyl-pyrazol-4-yl)sulfonylamino]-1-naphthyl]benzoic acid]	3200
Cc1nn(CC(C)C)cc1S(=O)(=O)Nc1ccc(-c2cccc(C(=O)O)c2)c2ccccc12 [Example 64, 3-[4-[(1-isobutyl-3-methyl-pyrazol-4-yl)sulfonylamino]-1-naphthyl]benzoic acid]	4500
Cc1c(S(=O)(=O)Nc2ccc(-c3cccc(C(=O)O)c3)c3ccccc23)cnn1C1CCCC1 [Example 67, 3-[4-[(1-cyclopentyl-5-methyl-pyrazol-4-yl)sulfonylamino]-1-naphthyl]benzoic acid]	1800
